The text below walks through data of ChEMBL document CHEMBL2086330, “Ras inhibition via direct Ras binding--is there a path forward?” (Bioorg Med Chem Lett, 2012).

The structures appear in SMILES notation.

As a reminder, the EC50 is the concentration at which the effect is half-maximal. The IC50 is the point on the concentration scale where inhibition reaches its midpoint. The term Kd denotes the constant that tells how readily two partners part at equilibrium. A high value points to weaker binding.

The nature of experiment [1]: Inhibition of Ras assessed as inhibition of intrinsic nucleotide exchange in cell-based assay.
The target of experiment [2] is T1, Son of sevenless homolog 1 (Homo sapiens, UniProt Q07889).
T1 sequence (Q07889 whole entry): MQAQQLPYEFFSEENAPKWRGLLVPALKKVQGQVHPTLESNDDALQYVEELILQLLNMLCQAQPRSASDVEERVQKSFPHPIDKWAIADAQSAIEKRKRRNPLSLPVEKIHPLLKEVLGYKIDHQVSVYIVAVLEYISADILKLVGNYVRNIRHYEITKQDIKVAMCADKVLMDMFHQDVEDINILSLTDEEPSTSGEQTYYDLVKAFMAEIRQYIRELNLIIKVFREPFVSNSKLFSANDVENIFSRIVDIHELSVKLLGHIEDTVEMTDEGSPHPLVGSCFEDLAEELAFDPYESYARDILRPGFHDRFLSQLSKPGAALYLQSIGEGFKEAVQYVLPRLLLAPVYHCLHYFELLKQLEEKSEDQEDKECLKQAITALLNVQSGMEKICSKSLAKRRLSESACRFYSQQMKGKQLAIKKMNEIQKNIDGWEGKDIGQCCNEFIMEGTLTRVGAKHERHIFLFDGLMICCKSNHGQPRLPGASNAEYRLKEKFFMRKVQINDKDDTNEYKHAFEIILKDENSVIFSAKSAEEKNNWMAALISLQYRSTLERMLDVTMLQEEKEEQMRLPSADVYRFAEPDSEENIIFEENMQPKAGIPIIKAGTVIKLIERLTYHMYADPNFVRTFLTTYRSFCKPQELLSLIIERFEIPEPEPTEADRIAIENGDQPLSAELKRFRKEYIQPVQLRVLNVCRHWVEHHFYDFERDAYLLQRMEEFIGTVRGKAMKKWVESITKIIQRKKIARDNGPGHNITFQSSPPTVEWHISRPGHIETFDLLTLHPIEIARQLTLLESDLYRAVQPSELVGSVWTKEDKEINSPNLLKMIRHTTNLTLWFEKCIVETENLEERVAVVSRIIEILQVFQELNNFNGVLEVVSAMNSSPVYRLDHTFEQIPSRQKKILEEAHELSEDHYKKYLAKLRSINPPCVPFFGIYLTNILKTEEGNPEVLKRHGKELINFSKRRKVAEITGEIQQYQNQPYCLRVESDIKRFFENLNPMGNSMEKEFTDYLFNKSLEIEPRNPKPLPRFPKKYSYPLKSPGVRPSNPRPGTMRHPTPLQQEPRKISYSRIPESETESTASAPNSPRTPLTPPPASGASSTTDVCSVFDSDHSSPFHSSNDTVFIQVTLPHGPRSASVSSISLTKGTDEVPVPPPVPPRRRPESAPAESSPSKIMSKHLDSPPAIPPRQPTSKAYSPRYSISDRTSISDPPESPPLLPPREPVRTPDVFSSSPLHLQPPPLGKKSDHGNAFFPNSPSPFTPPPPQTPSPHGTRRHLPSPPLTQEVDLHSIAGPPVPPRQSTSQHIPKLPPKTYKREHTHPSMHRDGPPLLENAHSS
As to the kind of experiment: Inhibition to His6-tagged Sos1 catalytic domain-mediated nucleotide exchange by fluorimetric assay.

Experiment [3] in a line: Binding affinity to Ras SOS1 binding site.
Experiment [4] deals with GTPase KRas (Homo sapiens, UniProt P01116, G12D). The experiment in a line: Binding affinity to K-Ras G12D mutant-GDP complex.
Chain of GTPase KRas (P01116 whole entry G12D): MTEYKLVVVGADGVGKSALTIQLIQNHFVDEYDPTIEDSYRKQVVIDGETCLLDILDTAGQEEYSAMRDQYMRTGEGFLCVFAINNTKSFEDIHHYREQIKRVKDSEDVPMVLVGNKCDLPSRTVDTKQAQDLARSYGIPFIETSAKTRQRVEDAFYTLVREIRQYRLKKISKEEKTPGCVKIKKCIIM
Experiment [5] has as its target GTPase NRas (Homo sapiens, UniProt P01111). As to the kind of experiment: Inhibition of N-Ras expressed in Escherichia coli using [3H]GDP and [3H]GTP assessed as inhibition of intrinsic nucleotide exchange by scintillation counting.

Chain of GTPase NRas (P01111 whole entry): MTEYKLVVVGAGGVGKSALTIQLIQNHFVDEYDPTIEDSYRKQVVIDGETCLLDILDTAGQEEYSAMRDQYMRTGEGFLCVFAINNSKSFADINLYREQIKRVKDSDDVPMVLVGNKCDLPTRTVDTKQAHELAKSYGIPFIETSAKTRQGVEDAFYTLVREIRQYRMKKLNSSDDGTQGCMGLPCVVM

As for `O=S(=O)(NCCOc1ccc2ccccc2c1)c1ccc(NO)cc1`, in experiment [1], the concentration giving a half-maximal response (EC50) worked out at 10 µM. Regarding `CC[C@H](C)[C@H](NC(=O)CN1C/C=C\CCC(=O)N[C@@H](Cc2ccccc2)C(=O)N[C@@H](CCC(=O)O)C1=O)C(=O)N[C@@H](Cc1ccc(O)cc1)C(=O)N[C@@H](CCCNC(=N)N)C(=O)N[C@@H](CC(C)C)C(=O)N[C@@H](CCC(=O)O)C(=O)N[C@@H](CC(C)C)C(=O)N[C@@H](CC(C)C)C(=O)N[C@@H](CCCCN)C(=O)N[C@@H](C)C(=O)N[C@@H](CCC(=O)O)C(=O)N[C@@H](CCC(=O)O)C(=O)N[C@@H](C)C(=O)N[C@@H](CC(N)=O)C(N)=O`, in experiment [2], the IC50 was found to be 25 µM. Regarding `c1ccc2c(Cc3nc4ccncc4[nH]3)c[nH]c2c1`, the Activity in experiment [3] is 1.3 mM.

Take `CC[C@H](C)[C@H](N)C(=O)Nc1ccc2nc(Cc3c[nH]c4ccccc34)[nH]c2c1`: the Kd in experiment [4] is 190 µM.

On to `O=S(=O)(c1ccc(NO)cc1)N(CCOc1ccc2ccccc2c1)[C@@H]1O[C@H](CO)[C@@H](O)[C@H](O)[C@H]1O`, for which the IC50 in experiment [5] worked out at 500 nM. `Nc1cccc(NS(=O)(=O)c2ccc(F)cc2)n1` gave an Activity in experiment [3] of 1.3 mM. For the compound `Oc1ccccc1C(=S)N1CCCC1`, the Activity in experiment [3] was 1.3 mM.
